One test relates to human β1 or β2 receptors. The test is described as follows: Inverse agonist activity: inhibition of basal adenylyl cyclase activity (cAMP generation) in Sf9 membranes. The format is biochemical. As to conditions: concentration 10×Ki for the β2 receptor. As to the method:
Sf9 cells were transfected with a baculovirus expression system coding for human β1 or β2 receptors as described in Chidiac et al., Molec.
Adenylyl cyclase activity of Sf9 membranes was measured as described in Chidiac et al., Molec. […] The inhibition of basal cAMP generation in this system is a measure of inverse agonism.

Test [1] has as its system β1, β2 and α1 adrenergic receptors. As to conditions: Yoshikawa et al., Eur. Heart J. 1996; cited from earlier work.

For `CC(C)(Cc1c[nH]c2ccccc12)NCC(O)COc1ccccc1C#N` (centres unmarked) [bucindolol], the “rank order of inverse agonist activity (FIG. 1B)” value in the test with human β1 or β2 receptors is “metoprolol>propranolol≥carvedilol>xamoterol>bucindolol”. Besides, the “adrenergic receptor subtype selectivity / rank order of potency” value in test [1] is “nonselective for β1 and β2 adrenergic receptors”.
